pIC50: −log10 of the molar value. Where two headings read alike, the source gives them in different places.
Legend:
[1] = tested on: MV4-11 cells; experiment: MV4-11 Cell Cytotoxicity Assay (CellTiter-Blue, 72 h); assay type: cell-based, human
Outline: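 Cells seeded 24 h before treatment, then exposed 72 h at 37° C, 5% CO2 to inhibitors in triplicate, top concentration 50 μM with 1:2 serial dilutions (0.5% DMSO vehicle). Viability read by CellTiter-Blue fluorescence at 560/590 nm after 1 h.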

[2] = tested on: glutathione (GSH); experiment: Reactivity Profiling with Glutathione (GSH), half-life by HPLC; details: 5 mM glutathione (GSH) in IMDM with 10% FBS
Procedure: 3.5 μL of 5 mM stocking solution of the inhibitors in DMSO was added to 697.5 μL of Iscove's Modified Dulbecco's Medium (IMDM) supplemented with 10% FBS and antibiotic antimycotic solution, with 5 mM glutathione to afford a final concentration of 25 μM inhibitor with 0.5% DMSO. The solution was then immediately placed in the sample tray at 25° C. […] For each inhibitor, its peak is integrated at different time points and compared to the time zero injection in order to obtain a percentage remaining. Half-life is calculated according to a first order reaction kinetic taking into account those time points for which remaining percentage of inhibitor is above 40%, using the formula: t½=Ln(2)/k, where k is the slope of the linear plot of Ln[Inhibitor] vs time, according to the formula: Ln[A]=Ln[A]0−kt, where [A] is the value resulting from the integration at each time point, [A]0 the value at time zero, and t the time. For each inhibitor, both replicates are averaged and the resulting t½ reported.

[3] = Homo sapiens, MV4-11, MV-4-11 cells
[4] = Homo sapiens, MV4-11 cells, 72 h, CellTiter-Blue, read-out: IC50- MV-4-11

Question: Which results are given for `CC(C)COc1cc(CN(C(=O)CN(Cc2ccc(Cl)cc2)S(=O)(=O)c2c(F)c(F)c(F)c(F)c2F)c2ccc(C(=O)O)c(O)c2)cc(OCC2CC2)c1` [Compound 1010, 4-(2-(N-(4-chlorobenzyl)-(2,3,4,5,6-pentafluorophenyl)sulfonamido)-N-(3-(cyclopropylmethoxy)-5-isobutoxybenzyl)acetamido)-2-hydroxybenzoic acid]?
Answer: pIC50 [1, 3]: 4.00 to 5.50; half-life at 25 μM [2]: 2.37 to 4.12 h

Question: `CC(C)(C)c1cc(CN(C(=O)CN(Cc2ccc(Cl)cc2)S(=O)(=O)c2c(F)c(F)c(F)c(F)c2F)c2ccc(C(=O)O)cc2O)cc(C2CC2)c1` [Compound 1015, 4-(N-(3-(tert-butyl)-5-cyclopropylbenzyl)-2-(N-(4-chlorobenzyl)-(2,3,4,5,6-pentafluorophenyl)sulfon-amido)acetamido)-3-hydroxybenzoic acid] was tested. Which pIC50 [1, 3] did it give?
Answer: 4.00 to 5.50

Question: What about the half-life at 25 μM [2] of the same compound?
Answer: 4.12 to 9.23 h

Question: How did the pIC50 [1, 3] turn out when `COc1cc(N(Cc2cc(C3CC3)cc(C(C)(C)C)c2)C(=O)CN(Cc2ccc(Cl)cc2)S(=O)(=O)c2c(F)c(F)c(F)c(F)c2F)ccc1C(=O)O` [Compound 1017, 4-(N-(3-(tert-butyl)-5-cyclopropylbenzyl)-2-(N-(4-chlorobenzyl)-(2,3,4,5,6-pentafluorophenyl)sulfon-amido)acetamido)-2-methoxybenzoic acid] was run?
Answer: 6.00 to 6.50

Question: What about the half-life at 25 μM [2] of the same compound?
Answer: 4.12 to 9.23 h

Question: `CC(C)c1cc(CN(C(=O)CN(Cc2ccc(Cl)cc2)S(=O)(=O)c2c(F)c(F)c(F)c(F)c2F)c2ccc(C(=O)O)c(O)c2)cc(C2CC2)c1` [Compound 1021, 4-(2-(N-(4-chlorobenzyl)-(2,3,4,5,6-pentafluorophenyl)sulfon-amido)-N-(3-cyclopropyl-5-isopropylbenzyl)acetamido)-2-hydroxybenzoic acid] was tested. Which pIC50 [1, 3] did it give?
Answer: 4.00 to 5.50

Question: And the half-life at 25 μM [2]?
Answer: 0.00167 to 2.37 h

Question: Which results are given for `CC(C)(C)c1cc(CN(C(=O)CN(Cc2ccc(Cl)cc2)S(=O)(=O)c2c(F)c(F)c(F)c(F)c2F)c2ccc(C(N)=O)cc2)cc(C2CC2)c1` [Compound 1031, 4-(N-(3-(tert-butyl)-5-cyclopropylbenzyl)-2-(N-(4-chlorobenzyl)-(2,3,4,5,6-pentafluorophenyl)sulfon-amido)acetamido) benzamide]?
Answer: pIC50 [1, 3]: 5.50 to 6.00; half-life at 25 μM [2]: 9.23 to 1670 h

Question: `CC(C)(C)c1cc(CN(C(=O)CN(Cc2ccc(Cl)cc2)S(=O)(=O)c2c(F)c(F)c(F)c(F)c2F)c2ccc(C(=O)O)c(F)c2)cc(C2CC2)c1` [Compound 1033, 4-(N-(3-(tert-butyl)-5-cyclopropylbenzyl)-2-(N-(4-chlorobenzyl)-(2,3,4,5,6-pentafluorophenyl)sulfon-amido)acetamido)-2-fluorobenzoic acid] was tested. Which pIC50 [1, 3] did it give?
Answer: 5.50 to 6.00

Question: What about the half-life at 25 μM [2] of the same compound?
Answer: 0.00167 to 2.37 h

Question: What does the source list for `COc1ccccc1CN(CC(=O)N(Cc1cc(C2CC2)cc(C(C)(C)C)c1)c1ccc(C(=O)O)c(O)c1)S(=O)(=O)c1c(F)c(F)c(F)c(F)c1F` [Compound 1037, 4-(N-(3-(tert-butyl)-5-cyclopropylbenzyl)-2-(N-(2-methoxybenzyl)-(2,3,4,5,6-pentafluoro-phenyl)sulfonamido)acetamido)-2-hydroxybenzoic acid]?
Answer: pIC50 [1, 3]: 5.50 to 6.00; half-life at 25 μM [2]: 2.37 to 4.12 h

Question: How did the pIC50 [1, 3] turn out when `C[C@H](CC(=O)N(Cc1cc(C2CC2)cc(C(C)(C)C)c1)c1ccc(C(=O)O)c(O)c1)N(Cc1ccc(Cl)cc1)S(=O)(=O)c1c(F)c(F)c(F)c(F)c1F` [Compound 1039, (R)-4-(N-(3-(tert-butyl)-5-cyclopropylbenzyl)-3-(N-(4-chlorobenzyl)-(2,3,4,5,6-pentafluorophenyl)sulfon-amido)butanamido)-2-hydroxybenzoic acid] was run?
Answer: 5.50 to 6.00

Question: What about the half-life at 25 μM [2] of the same compound?
Answer: 2.37 to 4.12 h

Question: With `C[C@@H](CC(=O)N(Cc1cc(C2CC2)cc(C(C)(C)C)c1)c1ccc(C(=O)O)c(O)c1)N(Cc1ccc(Cl)cc1)S(=O)(=O)c1c(F)c(F)c(F)c(F)c1F` [Compound 1040, (S)-4-(N-(3-(tert-butyl)-5-cyclopropylbenzyl)-3-(N-(4-chlorobenzyl)-(2,3,4,5,6-pentafluorophenyl)sulfon-amido)butanamido)-2-hydroxybenzoic acid] as the compound, how does the pIC50 [1, 3] read?
Answer: 4.00 to 5.50

Question: And the half-life at 25 μM [2]?
Answer: 4.12 to 9.23 h

Question: How did the pIC50 [1, 3] turn out when `CC(C)(C)c1cc(CN(C(=O)CN(Cc2ccccc2C(F)(F)F)S(=O)(=O)c2c(F)c(F)c(F)c(F)c2F)c2ccc(C(=O)O)c(O)c2)cc(C2CC2)c1` [Compound 1048, 4-(N-(3-(tert-butyl)-5-cyclopropylbenzyl)-2-(N-(2-(trifluoromethyl)benzyl)-(2,3,4,5,6-pentafluoro-phenyl)sulfonamido)acetamido)-2-hydroxybenzoic acid] was run?
Answer: 5.50 to 6.00

Question: And the half-life at 25 μM [2]?
Answer: 9.23 to 1670 h

Question: Which half-life at 25 μM [2] does the source give for `O=C(O)c1ccc(N(Cc2cccc(N3CCCC3)c2)C(=O)CN(Cc2cnccc2C(F)(F)F)S(=O)(=O)c2c(F)c(F)c(F)c(F)c2F)c(OC2CC2)c1` [Compound 1159, 3-cyclopropoxy-4-(2-(N-((4-(trifluoromethyl)pyridin-3-yl)methyl)-(2,3,4,5,6-pentafluoro-phenyl)sulfonamido)-N-(3-(pyrrolidin-1-yl)benzyl)acetamido) benzoic acid] here?
Answer: 0.00167 to 2.37 h

Question: How did the half-life at 25 μM [2] turn out when `O=C(O)c1ccc(N(Cc2cccc(N3CCCC3)c2)C(=O)CN(Cc2ncccc2C(F)(F)F)S(=O)(=O)c2c(F)c(F)c(F)c(F)c2F)c(OC2CC2)c1` [Compound 1160, 3-cyclopropoxy-4-(2-(N-((3-(trifluoromethyl)pyridin-2-yl)methyl)-(2,3,4,5,6-pentafluoro-phenyl)sulfonamido)-N-(3-(pyrrolidin-1-yl)benzyl)acetamido) benzoic acid] was run?
Answer: 0.00167 to 2.37 h

Question: `COc1cc(C(=O)OC(C)C)ccc1N(Cc1cc(C2CC2)cc(C(C)(C)C)c1)C(=O)CN(Cc1cnccc1C(F)(F)F)S(=O)(=O)c1c(F)c(F)c(F)c(F)c1F` [Compound 1172, isopropyl 4-(N-(3-(tert-butyl)-5-cyclopropylbenzyl)-2-(N-((4-(trifluoromethyl)pyridin-3-yl)methyl)-(2,3,4,5,6-pentafluoro-phenyl)sulfonamido)acetamido)-3-methoxybenzoate] was tested. Which half-life at 25 μM [2] did it give?
Answer: 9.23 to 1670 h

Question: With `COc1cc(C(=O)O)ccc1N(Cc1cc(C2CC2)cc(C(C)(C)C)c1)C(=O)CN(Cc1ncc(Cl)cc1F)S(=O)(=O)c1c(F)c(F)c(F)c(F)c1F` [Compound 1177, 4-(N-(3-(tert-butyl)-5-cyclopropylbenzyl)-2-(N-((5-chloro-3-fluoropyridin-2-yl)methyl)-(2,3,4,5,6-pentafluorophenyl)sulfon-amido)acetamido)-3-methoxybenzoic acid] as the compound, how does the half-life at 25 μM [2] read?
Answer: 0.00167 to 2.37 h

Question: Which half-life at 25 μM [2] does the source give for `COc1cc(O)ccc1N(Cc1cc(C2CC2)cc(C(C)(C)C)c1)C(=O)CN(Cc1cnccc1C(F)(F)F)S(=O)(=O)c1c(F)c(F)c(F)c(F)c1F` [Compound 1267, N-(3-(tert-butyl)-5-cyclopropylbenzyl)-N-(4-hydroxy-2-methoxyphenyl)-2-(N-((4-(trifluoromethyl)pyridin-3-yl)methyl)-(2,3,4,5,6-pentafluoro-phenyl)sulfonamido) acetamide] here?
Answer: 9.23 to 1670 h

Question: With `O=C(O)c1ccc(N(Cc2cc(O)cc(O)c2)C(=O)CN(Cc2ccc(Cl)cc2)S(=O)(=O)c2c(F)c(F)c(F)c(F)c2F)cc1O` [Compound 2010, 4-(2-(N-(4-chlorobenzyl)-(2,3,4,5,6-pentafluorophenyl)sulfon-amido)-N-(3,5-dihydroxybenzyl)acetamido)-2-hydroxybenzoic acid] as the compound, how does the pIC50 [1, 4] read?
Answer: 4.00 to 5.50

Question: With `CC(C)(C)c1cccc(CN(C(=O)CN(C23CC(C2)C3)S(=O)(=O)c2c(F)c(F)c(F)c(F)c2F)c2ccc(C(=O)O)c(O)c2)c1` [Compound 2011, 4-(2-(N-(bicyclo[1.1.1]pentan-1-yl)-(2,3,4,5,6-pentafluorophenyl)sulfon-amido)-N-(3-(tert-butyl)benzyl)acetamido)-2-hydroxybenzoic acid] as the compound, how does the pIC50 [1, 4] read?
Answer: 5.50 to 6.00

Question: How did the pIC50 [1, 4] turn out when `O=C(O)c1ccc(N(Cc2cc(Cl)cc(Cl)c2)C(=O)CN(Cc2ccc(Cl)cc2)S(=O)(=O)c2c(F)c(F)c(F)c(F)c2F)cc1O` [Compound 2012, 4-(2-(N-(4-chlorobenzyl)-(2,3,4,5,6-pentafluorophenyl)sulfon-amido)-N-(3,5-dichlorobenzyl)acetamido)-2-hydroxybenzoic acid] was run?
Answer: 4.00 to 5.50

Question: `O=C(O)c1ccc(N(Cc2cc(Cl)cc(Br)c2)C(=O)CN(Cc2ccc(Cl)cc2)S(=O)(=O)c2c(F)c(F)c(F)c(F)c2F)cc1O` [Compound 2013, 4-(N-(3-bromo-5-chlorobenzyl)-2-(N-(4-chlorobenzyl)-(2,3,4,5,6-pentafluorophenyl)sulfon-amido)acetamido)-2-hydroxybenzoic acid] was tested. Which pIC50 ([1]; MV4-11 cells, 72 h, CellTiter-Blue, read-out: IC50- MV-4-11) did it give?
Answer: 4.00 to 5.50

Question: With `CC(C)(C)c1cc(N(C(=O)CN(Cc2ccc(Cl)cc2)S(=O)(=O)c2c(F)c(F)c(F)c(F)c2F)c2ccc(C(=O)O)c(O)c2)cc(C(C)(C)C)c1` [Compound 2014, 4-(2-(N-(4-chlorobenzyl)-(2,3,4,5,6-pentafluorophenyl)sulfon-amido)-N-(3,5-di-tert-butylphenyl)acetamido)-2-hydroxybenzoic acid] as the compound, how does the pIC50 [1, 4] read?
Answer: 5.50 to 6.00

Question: `COc1cc(C(=O)O)ccc1N(C)C(=O)CN(Cc1ccccc1C(F)(F)F)S(=O)(=O)c1c(F)c(F)c(F)c(F)c1F` [Compound 2018, 3-methoxy-4-(N-methyl-2-(N-(2-(trifluoromethyl)benzyl)-(2,3,4,5,6-pentafluoro-phenyl)sulfonamido)acetami-do)benzoic acid] was tested. Which pIC50 [1, 4] did it give?
Answer: 5.50 to 6.00

Question: `CC1(C)OC(=O)c2ccc(N(Cc3cc(C4CC4)cc(C(C)(C)C)c3)C(=O)CN(Cc3ccc(Cl)cc3)S(=O)(=O)c3c(F)c(F)c(F)c(F)c3F)cc2O1` [Compound 2022, N-(3-(tert-butyl)-5-cyclopropylbenzyl)-2-(N-(4-chlorobenzyl)-(2,3,4,5,6-pentafluorophenyl)sulfon-amido)-N-(2,2-dimethyl-4-oxo-4H-benzo[d][1,3]dioxin-7-yl)acetamide] was tested. Which pIC50 [1, 4] did it give?
Answer: 4.00 to 5.50

From patent US20230159445A1, “STAT INHIBITORY COMPOUNDS AND COMPOSITIONS” (JANPIX LIMITED, priority 2020, published 2023)
